Test [1] relates to rabbit reticulocyte lysate system. The test can be described thus: In vitro translation efficiency of capped luciferase mRNA with 31-base poly(A) tail, method II transcripts. Conditions: for In vitro translational efficiency (method II): Table 3, relative to m^7GpppG-capped mRNA = 1.0; for Translation efficiency in comparison to m^7GpppG-LUC-(A)31 mRNA, Experiment No. 1: experiment 1; for Translation efficiency in comparison to m^7GpppG-LUC-(A)31 mRNA, Experiment No. 2: experiment 2; for Translation efficiency in comparison to m^7GpppG-LUC-(A)31 mRNA, Experiment No. 3: experiment 3; for Translation efficiency in comparison to m^7GpppG-LUC-(A)31 mRNA, Mean: mean of experiments; for Translation efficiency in comparison to m^7GpppG-LUC-(A)31 mRNA, Experiment No. 4: experiment 4; for Translation efficiency in comparison to m^7GpppG-LUC-(A)31 mRNA, Experiment No. 5: experiment 5. In kind it is biochemical. The gist of the method:
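Cap-analog-primed SP6 transcripts (β-globin 5′-UTR, firefly luciferase, 31-A tail; 0.5 mM cap analog, 0.1 mM GTP) were translated in nuclease-treated rabbit reticulocyte lysate for 60 min at 30° C at 0.25–4 μg/ml mRNA. Efficiency is the slope of luciferase activity versus mRNA concentration, relative to m^7GpppG-capped mRNA (1.0).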

The next test has as its target eIF4E (Mus musculus, UniProt P63073). Kind of test: Binding affinity of cap analogs to eIF4E by fluorescence titration. The settings on record: equilibrium association constant; for Cap analog-eIF4E affinity (KAS): Table 3; for Cap analog/eIF4E affinity (KAS): 20 °C, pH 7.2, ionic strength 150 mM. The method, boiled down:
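Cap analogue was titrated into 0.1 or 0.2 μM eIF4E at 20.0° C, in 50 mM HEPES/KOH pH 7.2 with 0.5 mM EDTA and 1 mM DTT, ionic strength 150 mM (KCl). Fluorescence quenching was read at excitation 280 or 295 nm and emission 337 nm, corrected for dilution and inner filter. Kas is a weighted average of 3–10 titration fits.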

The target in another test is T1, Human DcpS (Homo sapiens, UniProt Q96C86).
T1 construct: made in house; host or cells: Escherichia coli
T1 sequence (Q96C86 1-337): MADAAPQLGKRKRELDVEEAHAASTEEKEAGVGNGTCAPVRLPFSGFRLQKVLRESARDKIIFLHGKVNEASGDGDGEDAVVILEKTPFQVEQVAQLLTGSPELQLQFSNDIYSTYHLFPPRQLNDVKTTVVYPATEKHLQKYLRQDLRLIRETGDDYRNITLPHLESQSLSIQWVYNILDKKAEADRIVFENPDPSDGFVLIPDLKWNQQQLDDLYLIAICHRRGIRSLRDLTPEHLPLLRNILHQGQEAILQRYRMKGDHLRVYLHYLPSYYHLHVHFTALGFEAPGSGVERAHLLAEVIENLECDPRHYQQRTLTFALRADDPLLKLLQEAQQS
Kind of test: Assay of susceptibility to DcpS (RP HPLC). It is filed as biochemical. The gist of the method:
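E. coli-expressed human DcpS reacted with 40 μM cap analog at 30° C in 50 mM Tris-HCl pH 7.9, 20 mM MgCl2, 60 mM (NH4)2SO4. Samples taken at 10, 30, 60 and 120 min, heat-inactivated, and analysed by RP HPLC (methanol gradient in 0.1 M KH2PO4 pH 6.0).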

[2] abbreviates: 40 μM cap analog, 30° C., up to 120 min.

eIF4E, sequence (P63073 28-217 limits assumed): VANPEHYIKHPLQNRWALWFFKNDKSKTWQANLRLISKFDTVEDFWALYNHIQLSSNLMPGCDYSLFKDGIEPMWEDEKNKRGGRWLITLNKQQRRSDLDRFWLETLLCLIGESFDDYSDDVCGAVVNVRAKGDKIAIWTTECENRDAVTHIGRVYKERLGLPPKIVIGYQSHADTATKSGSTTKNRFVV

`CO[C@@H]1[C@H](O)[C@@H](COP(=O)(O)OP(O)(=[Se])OP(=O)(O)OC[C@H]2O[C@@H](n3cnc4c(=O)[nH]c(N)nc43)[C@H](O)[C@@H]2O)O[C@H]1n1c[n+](C)c2c(=O)[nH]c(N)nc21` (single isomer, unassigned) [m2^7,2′-OGppSepG (D2), m2^7,2′-OGppSepG]: in test [1], the “In vitro translational efficiency (method II)” value worked out at 2.31 ± 0.22; the “Translation efficiency in comparison to m^7GpppG-LUC-(A)31 mRNA, Experiment No. 1” value (“Translation efficiency … Experiment No. 1” below) turned out to be 2.53; the “Translation efficiency in comparison to m^7GpppG-LUC-(A)31 mRNA, Experiment No. 2” value (“Translation efficiency … Experiment No. 2” for short) was 2.31; the “Translation efficiency in comparison to m^7GpppG-LUC-(A)31 mRNA, Experiment No. 3” value (from here on “Translation efficiency … Experiment No. 3”) is reported as 2.09. In test [1], the “Translation efficiency in comparison to m^7GpppG-LUC-(A)31 mRNA, Mean” value (from here on “Translation efficiency in comparison … Mean”) is listed as 2.31. Further, the “Cap analog-eIF4E affinity (KAS)” value at eIF4E amounted to 19.0 ± 0.5 μM^−1. In addition, at Human DcpS (Table 3), the “Susceptibility to DcpS” value is recorded as “hydrolyzed”.
On to `Cn1c[n+]([C@@H]2O[C@H](COP(=O)(O)OP(=O)(O)OP(=O)(O)OC[C@H]3O[C@@H](n4cnc5c(=O)[nH]c(N)nc54)[C@H](O)[C@@H]3O)[C@@H](O)[C@H]2O)c2nc(N)[nH]c(=O)c21` [m^7GpppG, m^7G(5′)ppp(5′)G, reference compound], for which, in test [1], the “In vitro translational efficiency (method II)” value came out at 1.00; the “Translation efficiency … Experiment No. 1” value was 1.00; the “Translation efficiency … Experiment No. 2” value came out at 1.00; the “Translation efficiency … Experiment No. 3” value worked out at 1.00. In addition, in test [1], the “Translation efficiency in comparison to m^7GpppG-LUC-(A)31 mRNA, Experiment No. 4” value is given as 1.00; the “Translation efficiency in comparison to m^7GpppG-LUC-(A)31 mRNA, Experiment No. 5” value is on record as 1.00; the “Translation efficiency in comparison … Mean” value came to 1.00. Besides, at eIF4E, the “Cap analog-eIF4E affinity (KAS)” value is given as 9.4 ± 0.4 μM^−1 and the “Cap analog/eIF4E affinity (KAS)” value worked out at 9.4 ± 0.4 μM^−1. Moreover, the “Susceptibility to DcpS” value at Human DcpS (setting [2]) is on record as “hydrolyzed”. For the same compound, the “Susceptibility to DcpS” value at Human DcpS (Table 3) is “hydrolyzed”.
On to m^7GppBH3pm^7G, for which, in test [1], the “Translation efficiency in comparison to m^7GpppG-LUC-(A)31 mRNA, Experiment No. 5” value came out at 3.56 and the “Translation efficiency in comparison … Mean” value was found to be 3.56. At eIF4E, the “Cap analog/eIF4E affinity (KAS)” value is on record as 11.1 ± 0.2 μM^−1. Further, the “Susceptibility to DcpS” value on Human DcpS (setting [2]) is “resistant”.
As for `CO[C@@H]1[C@H](O)[C@@H](COP(=O)(O)OP(O)(=[Se])OP(=O)(O)OC[C@H]2O[C@@H](n3cnc4c(=O)[nH]c(N)nc43)[C@H](O)[C@@H]2O)O[C@H]1n1c[n+](C)c2c(=O)[nH]c(N)nc21` (single isomer, unassigned) [m2^7,2′-OGppSepG (D1), m2^7,2′-OGppSepG], in test [1], the “In vitro translational efficiency (method II)” value is 2.24 ± 0.28; the “Translation efficiency … Experiment No. 1” value is 2.05; the “Translation efficiency … Experiment No. 2” value is listed as 2.09; the “Translation efficiency … Experiment No. 3” value amounted to 2.16. In test [1], the “Translation efficiency in comparison to m^7GpppG-LUC-(A)31 mRNA, Experiment No. 4” value was 2.65 and the “Translation efficiency in comparison … Mean” value is recorded as 2.24. Also, the “Cap analog-eIF4E affinity (KAS)” value at eIF4E was 38.5 ± 0.7 μM^−1. For the same compound, the “Susceptibility to DcpS” value on Human DcpS (Table 3) is recorded as “hydrolyzed”.

For the origin of these results see patent US8519110B2, “mRNA cap analogs” (Board of Supervisors of Louisiana State University And …, priority 2008, dated 2013).
